# From PubChem BioAssay (NCI)
#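 GI50 is the concentration that inhibits growth by half. At the TGI there is no net growth.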
# Tests used:
# Experiment in all cases: NCI-60 cell line screen, 384-well format
# 786-0 renal = tested on: 786-0 renal
# A549 NSCLC = tested on: A549 NSCLC
# ACHN renal = tested on: ACHN renal
# BT-549 breast = tested on: BT-549 breast
# CCRF-CEM leukemia = tested on: CCRF-CEM leukemia
# COLO 205 colon = tested on: COLO 205 colon
# HCC-2998 colon = tested on: HCC-2998 colon
# HCT-116 colon = tested on: HCT-116 colon
# HCT-15 colon = tested on: HCT-15 colon
# HL-60(TB) leukemia = tested on: HL-60(TB) leukemia
# HOP-62 NSCLC = tested on: HOP-62 NSCLC
# HT29 colon = tested on: HT29 colon
# IGROV1 ovarian = tested on: IGROV1 ovarian
# K-562 leukemia = tested on: K-562 leukemia
# KM12 colon = tested on: KM12 colon
# LOX IMVI melanoma = tested on: LOX IMVI melanoma
# M14 melanoma = tested on: M14 melanoma
# MALME-3M melanoma = tested on: MALME-3M melanoma
# MCF7 breast = tested on: MCF7 breast
# MDA-MB-231 breast = tested on: MDA-MB-231 breast
# MDA-MB-435 melanoma = tested on: MDA-MB-435 melanoma
# MDA-MB-468 breast = tested on: MDA-MB-468 breast
# MOLT-4 leukemia = tested on: MOLT-4 leukemia
# NCI-H23 lung = tested on: NCI-H23 lung
# NCI-H322M lung = tested on: NCI-H322M lung
# NCI-H460 NSCLC = tested on: NCI-H460 NSCLC
# NCI-H522 lung = tested on: NCI-H522 lung
# OVCAR-3 ovarian = tested on: OVCAR-3 ovarian
# OVCAR-8 ovarian = tested on: OVCAR-8 ovarian
# PC-3 prostate = tested on: PC-3 prostate
# RPMI-8226 leukemia = tested on: RPMI-8226 leukemia
# RXF 393 renal = tested on: RXF 393 renal
# SF-268 CNS = tested on: SF-268 CNS
# SF-295 CNS = tested on: SF-295 CNS
# SF-539 CNS = tested on: SF-539 CNS
# SK-MEL-2 melanoma = tested on: SK-MEL-2 melanoma
# SK-MEL-28 melanoma = tested on: SK-MEL-28 melanoma
# SK-MEL-5 melanoma = tested on: SK-MEL-5 melanoma
# SK-OV-3 ovarian = tested on: SK-OV-3 ovarian
# SN12C renal = tested on: SN12C renal
# SNB-19 CNS = tested on: SNB-19 CNS
# SR leukemia = tested on: SR leukemia
# SW-620 colon = tested on: SW-620 colon
# TK-10 renal = tested on: TK-10 renal
# U251 glioblastoma = tested on: U251 glioblastoma
# UACC-257 melanoma = tested on: UACC-257 melanoma
# UACC-62 melanoma = tested on: UACC-62 melanoma
# UO-31 renal = tested on: UO-31 renal
smiles,measurement,setting,value
CN(C)C/C=C/C(=O)Nc1ccc(C(=O)N2CCC[C@@H](Nc3ncc(Cl)c(-c4c[nH]c5ccccc45)n3)C2)cc1,GI50,786-0 renal,241 nM
same,TGI,786-0 renal,683 nM
same,GI50,A549 NSCLC,294 nM
same,TGI,A549 NSCLC,967 nM
same,GI50,ACHN renal,1890 nM
same,TGI,ACHN renal,11200 nM
same,GI50,BT-549 breast,16.4 nM
same,TGI,BT-549 breast,37.6 nM
same,GI50,CCRF-CEM leukemia,28 nM
same,TGI,CCRF-CEM leukemia,74.5 nM
same,GI50,COLO 205 colon,19 nM
same,TGI,COLO 205 colon,42.9 nM
same,GI50,HCC-2998 colon,17.8 nM
same,TGI,HCC-2998 colon,38.1 nM
same,GI50,HCT-116 colon,31 nM
same,TGI,HCT-116 colon,1170 nM
same,GI50,HCT-15 colon,3050 nM
same,TGI,HCT-15 colon,9820 nM
same,GI50,HL-60(TB) leukemia,22.7 nM
same,TGI,HL-60(TB) leukemia,37.4 nM
same,GI50,HOP-62 NSCLC,159 nM
same,TGI,HOP-62 NSCLC,581 nM
same,GI50,HT29 colon,165 nM
same,TGI,HT29 colon,478 nM
same,GI50,IGROV1 ovarian,22.9 nM
same,TGI,IGROV1 ovarian,69.5 nM
same,GI50,K-562 leukemia,39.7 nM
same,TGI,K-562 leukemia,840 nM
same,GI50,KM12 colon,34.7 nM
same,TGI,KM12 colon,160 nM
same,GI50,LOX IMVI melanoma,25.6 nM
same,TGI,LOX IMVI melanoma,48 nM
same,GI50,M14 melanoma,106 nM
same,TGI,M14 melanoma,279 nM
same,GI50,MALME-3M melanoma,19.6 nM
same,TGI,MALME-3M melanoma,39.4 nM
same,GI50,MCF7 breast,26.6 nM
same,TGI,MCF7 breast,1290 nM
same,GI50,MDA-MB-231 breast,25.4 nM
same,TGI,MDA-MB-231 breast,72.3 nM
same,GI50,MDA-MB-435 melanoma,27 nM
same,TGI,MDA-MB-435 melanoma,90.4 nM
same,GI50,MDA-MB-468 breast,17.7 nM
same,TGI,MDA-MB-468 breast,33.7 nM
same,GI50,MOLT-4 leukemia,21.6 nM
same,TGI,MOLT-4 leukemia,42.9 nM
same,GI50,NCI-H23 lung,27.4 nM
same,TGI,NCI-H23 lung,117 nM
same,GI50,NCI-H322M lung,27.4 nM
same,TGI,NCI-H322M lung,67.8 nM
same,GI50,NCI-H460 NSCLC,184 nM
same,TGI,NCI-H460 NSCLC,424 nM
same,GI50,NCI-H522 lung,19 nM
same,TGI,NCI-H522 lung,36.3 nM
same,GI50,OVCAR-3 ovarian,18 nM
same,TGI,OVCAR-3 ovarian,38.2 nM
same,GI50,OVCAR-8 ovarian,149 nM
same,TGI,OVCAR-8 ovarian,398 nM
same,GI50,PC-3 prostate,46.3 nM
same,TGI,PC-3 prostate,371 nM
same,GI50,RPMI-8226 leukemia,151 nM
same,TGI,RPMI-8226 leukemia,285 nM
same,GI50,RXF 393 renal,24.5 nM
same,TGI,RXF 393 renal,77.7 nM
same,GI50,SF-268 CNS,20.5 nM
same,TGI,SF-268 CNS,44.7 nM
same,GI50,SF-295 CNS,274 nM
same,TGI,SF-295 CNS,767 nM
same,GI50,SF-539 CNS,20.1 nM
same,TGI,SF-539 CNS,43.6 nM
same,GI50,SK-MEL-2 melanoma,19.9 nM
same,TGI,SK-MEL-2 melanoma,48.8 nM
same,GI50,SK-MEL-28 melanoma,20.8 nM
same,TGI,SK-MEL-28 melanoma,48 nM
same,GI50,SK-MEL-5 melanoma,28.3 nM
same,TGI,SK-MEL-5 melanoma,135 nM
same,GI50,SK-OV-3 ovarian,38.6 nM
same,TGI,SK-OV-3 ovarian,352 nM
same,GI50,SN12C renal,46.8 nM
same,TGI,SN12C renal,222 nM
same,GI50,SNB-19 CNS,33.3 nM
same,TGI,SNB-19 CNS,1420 nM
same,GI50,SR leukemia,16.4 nM
same,TGI,SR leukemia,30.3 nM
same,GI50,SW-620 colon,71.4 nM
same,TGI,SW-620 colon,410 nM
same,GI50,TK-10 renal,389 nM
same,TGI,TK-10 renal,14700 nM
same,GI50,U251 glioblastoma,48.2 nM
same,TGI,U251 glioblastoma,399 nM
same,GI50,UACC-257 melanoma,41.9 nM
same,TGI,UACC-257 melanoma,197 nM
same,GI50,UACC-62 melanoma,92.7 nM
same,TGI,UACC-62 melanoma,321 nM
same,GI50,UO-31 renal,2190 nM
same,TGI,UO-31 renal,5380 nM
